Results on two compounds are retold here after patent publication US10227358B2, “Hydroxyester derivatives, a process for their preparation and pharmaceutical compositions containing them” (LES LABORATOIRES SERVIER, priority 2015, dated 2019).

In assay [1] the test system is H929 multiple myeloma tumour line. The assay can be described thus: In vitro cytotoxicity (MTT, Microculture Tetrazolium Assay). The conditions noted are these: Homo sapiens, NCI-H929; H929 cells, 48 hours exposure, cell viability. The assay is classed as cell-based. The protocol: The cytotoxicity studies were carried out on the H929 multiple myeloma tumour line.
The cells are distributed onto microplates and exposed to the test compounds for 48 hours.
The cell viability is then quantified by a colorimetric assay, the Microculture Tetrazolium Assay (Cancer Res., 1987, 47, 939-942).

For a further assay, the target named is Mcl-1 protein (UniProtKB Q07820) (Homo sapiens, UniProt Q07820). The experiment in a line: Inhibition of Mcl-1 by the fluorescence polarisation technique. The assay is classed as binding. The following applies: fluorescein labelled ligand 1 nM, Mcl-1 protein 5 nM, ~2 hours at room temperature; read-out: IC50 (μM) Mcl-1 FP. The protocol:
The relative binding potency of each compound was determined via Fluorescence Polarisation (FP). The method utilised a Fluorescein labelled ligand (Fluorescein-βAla-Ahx-A-REIGAQLRRMADDLNAQY-OH; mw 2,765) which binds to the Mcl-1 protein (such that Mcl-1 corresponds to the UniProtKB® primary accession number: Q07820) leading to an increased anisotropy measured in milli-polarisation (mP) units using a reader. The addition of a compound which binds competitively to the same site as the ligand will result in a greater proportion of unbound ligand in the system indicated by a decrease in mP units.
An 11 point serial dilution of each compound was prepared in DMSO and 2 μl transferred into flat bottomed, low binding, 384-well plate (final DMSO concentration 5%). 38 μl of buffer (10 mM 4-(2-hydroxyethyl)-1-piperazineethanesulfonic acid [HEPES], 150 mM NaCl, 0.05% Tween 20, pH 7.4), containing the Fluorescein labelled ligand (final concentration 1 nM) and Mcl-1 protein (final concentration 5 nM) was then added.
Assay plates were incubated ˜2 hours at room temperature before FP was measured on a […] Synergy2 reader (Ex. 528 nm, Em. 640 nm, Cut off 510 nm) and mP units calculated. The binding of increasing doses of test compound was expressed as a percentage reduction in mP compared to a window established between ‘5% DMSO only’ and ‘100% inhibition’ controls. 11-point dose response curves were plotted with XL-Fit software using a 4-Parameter Logistic Model (Sigmoidal Dose-Response Model) and the inhibitory concentrations that gave a 50% reduction in mP (IC50) were determined.
In general terms: In fluorescence polarisation assays a small probe gives low polarisation when free and higher when bound to something large.

Sequence of Mcl-1 protein (Q07820 whole entry): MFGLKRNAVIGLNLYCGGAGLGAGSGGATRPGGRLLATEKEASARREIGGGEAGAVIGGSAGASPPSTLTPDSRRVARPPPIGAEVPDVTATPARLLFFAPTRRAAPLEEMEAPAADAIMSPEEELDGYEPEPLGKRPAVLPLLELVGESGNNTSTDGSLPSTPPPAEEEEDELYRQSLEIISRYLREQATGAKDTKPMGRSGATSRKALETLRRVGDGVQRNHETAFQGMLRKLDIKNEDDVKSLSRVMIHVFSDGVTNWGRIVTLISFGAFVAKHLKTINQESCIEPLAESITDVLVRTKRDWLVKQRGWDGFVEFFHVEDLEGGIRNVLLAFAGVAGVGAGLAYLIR

On to `COc1ccccc1-c1nccc(COc2ccccc2C[C@@H](Oc2ncnc3sc(-c4ccc(F)cc4)c(-c4c(C)c(Cl)c(OCCN5CCN(C)CC5)c(Cl)c4C)c23)C(=O)OC(C)OC(=O)N(C)C)n1` (stereo partly drawn) [Example 17, 1-[(dimethylcarbamoyl)oxy]ethyl (2R)-2-{[5-{3,5-dichloro-2,6-dimethyl-4-[2-(4-methylpiperazin-1-yl)ethoxy]phenyl}-6-(4-fluorophenyl)thieno[2,3-d]pyrimidin-4-yl]oxy}-3-(2-{[2-(2-methoxyphenyl)pyrimidin-4-yl]methoxy}phenyl)propanoate], for which the IC50 (usually the concentration at which inhibition is half-maximal) in assay [1] is 0.702 µM; on Mcl-1 protein it was 1.54 µM.
Consider `COc1ccccc1-c1nccc(COc2ccccc2C[C@@H](Oc2ncnc3sc(-c4ccc(F)cc4)c(-c4c(C)c(Cl)c(OCCN5CCN(C)CC5)c(Cl)c4C)c23)C(=O)O)n1` [Preparation 13, (2R)-2-{[5-{3,5-dichloro-2,6-dimethyl-4-[2-(4-methylpiperazin-1-yl)ethoxy]phenyl}-6-(4-fluorophenyl)thieno[2,3-d]pyrimidin-4-yl]oxy}-3-(2-{[2-(2-methoxyphenyl)pyrimidin-4-yl]methoxy}phenyl)propanoic Acid], for which the IC50 in assay [1] turned out to be 0.025 µM; on Mcl-1 protein, 0.00181 µM.
